Laboratory results published in article PMC5733478, “A Non-imaging High Throughput Approach to Chemical Library Screening at the Unmodified Adenosine-A3 Receptor in Living Cells” (Frontiers in Pharmacology, 2017).
Where a name gives a salt, the structure may show the parent alone.

Molecular target: T1, human A3AR (Homo sapiens, UniProt P0DMS8)
T1 construct: expressed in transfected cells
T1 sequence (P0DMS8 1-318): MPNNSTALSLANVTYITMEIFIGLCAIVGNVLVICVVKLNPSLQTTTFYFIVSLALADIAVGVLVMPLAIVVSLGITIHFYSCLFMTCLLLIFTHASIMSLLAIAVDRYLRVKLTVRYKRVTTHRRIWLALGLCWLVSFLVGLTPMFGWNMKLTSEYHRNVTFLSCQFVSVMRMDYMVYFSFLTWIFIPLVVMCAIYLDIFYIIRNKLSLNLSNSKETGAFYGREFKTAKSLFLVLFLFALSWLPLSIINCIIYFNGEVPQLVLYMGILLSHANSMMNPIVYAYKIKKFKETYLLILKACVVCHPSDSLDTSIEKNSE
Experiment: LOPAC library primary screen: single concentration (10 μM) inhibition of 25 nM CA200645 binding, PHERAstar FS
Conditions: not given

**Q.** With `C#CCOC(=O)C1=CCCN(C)C1` [Arecaidine propargyl ester hydrobromide] as the compound, how does the “% 25 nM CA200645 binding” value read?
**A.** The value was 96.0 ± 12.2%.

**Q.** For `COC(=O)C1=CCCN(C)C1` [Arecoline hydrobromide], which “% 25 nM CA200645 binding” value is on record?
**A.** Its value is 81.8 ± 27.0%.

**Q.** Which “% 25 nM CA200645 binding” value does the source give for `CC1=C(/C=C/C(C)=C/C=C/C(C)=C/C=C/C=C(C)/C=C/C=C(C)/C=C/C2=C(C)C(=O)[C@@H](O)CC2(C)C)C(C)(C)C[C@H](O)C1=O` [Astaxanthin] here?
**A.** The value was 96.8 ± 4.6%.

**Q.** How did the “% 25 nM CA200645 binding” value turn out when `CC(C)c1c(C(=O)Nc2ccccc2)c(-c2ccccc2)c(-c2ccc(F)cc2)n1CC[C@@H](O)C[C@@H](O)CC(=O)O` [Atorvastatin calcium salt trihydrate] was run?
**A.** The value was 97.7 ± 2.2%.

**Q.** `CC(=O)OC[C@H]1O[C@@H]([S-])[C@H](OC(C)=O)[C@@H](OC(C)=O)[C@@H]1OC(C)=O.CCP(CC)CC.[Au+]` [Auranofin] was tested. Which “% 25 nM CA200645 binding” value did it give?
**A.** The value was 82.1 ± 31.0%.

**Q.** How did the “% 25 nM CA200645 binding” value turn out when `O=C(O)C1=CC(=C(c2ccc(O)c(C(=O)O)c2)c2ccc(O)c(C(=O)O)c2)C=CC1=O` [Aurintricarboxylic acid] was run?
**A.** Its value is 93.7 ± 12.0%.

**Q.** Which “% 25 nM CA200645 binding” value does the source give for `CCCCCCCCCCCCCCCCCCN(CCCCCCCCCCCCCCCCCC)CCCN(CCO)CCO` [Avridine] here?
**A.** The value was 100.2 ± 21.9%.

**Q.** Which “% 25 nM CA200645 binding” value does the source give for `Cn1cnc([N+](=O)[O-])c1Sc1ncnc2nc[nH]c12` [Azathioprine] here?
**A.** The value was 93.9 ± 5.0%.

**Q.** Which “% 25 nM CA200645 binding” value does the source give for `O=C(O)CCCCCCCC(=O)O` [Azelaic acid] here?
**A.** The value was 91.8 ± 5.2%.

**Q.** Which “% 25 nM CA200645 binding” value does the source give for `CC[C@H]1OC(=O)[C@H](C)[C@@H](O[C@H]2C[C@@](C)(OC)[C@@H](O)[C@H](C)O2)[C@H](C)[C@@H](O[C@@H]2O[C@H](C)C[C@H](N(C)C)[C@H]2O)[C@](C)(O)C[C@@H](C)CN(C)[C@H](C)[C@@H](O)[C@]1(C)O` [Azithromycin dihydrate] here?
**A.** Its value is 98.9 ± 6.9%.

**Q.** With `CCN1CCc2nc(N)oc2CC1.Cl.Cl` [B-HT 933 dihydrochloride] as the compound, how does the “% 25 nM CA200645 binding” value read?
**A.** The value was 90.5 ± 9.0%.

**Q.** Which “% 25 nM CA200645 binding” value does the source give for `COc1ccc(-c2cc3nccn3c(Nc3ncccc3C(N)=O)n2)cc1OC.Cl.O` [BAY 61-3606 hydrochloride hydrate] here?
**A.** The value was 83.8 ± 10.8%.

**Q.** With `OCC(CO)(CBr)CBr` [BBMP] as the compound, how does the “% 25 nM CA200645 binding” value read?
**A.** The value was 93.9 ± 9.9%.

**Q.** With `Nc1ccc(-c2ccc3ccccc3n2)cc1` [BF-170 hydrochloride] as the compound, how does the “% 25 nM CA200645 binding” value read?
**A.** Its value is 78.6 ± 20.5%.

**Q.** `CC(=O)O[C@H]1Cc2ccccc2N(C(N)=O)c2ccccc21` [BIA 2-093] was tested. Which “% 25 nM CA200645 binding” value did it give?
**A.** Its value is 110.6 ± 5.0%.

**Q.** How did the “% 25 nM CA200645 binding” value turn out when `COc1cc2nc(N3CCCN(C)CC3)nc(NC3CCN(Cc4ccccc4)CC3)c2cc1OC` [BIX 01294 trihydrochloride hydrate] was run?
**A.** The value was 97.9 ± 21.2%.

**Q.** With `COc1ccccc1N1CCN(CCN2C(=O)CC3(CCCC3)CC2=O)CC1.Cl.Cl` [BMY 7378 dihydrochloride] as the compound, how does the “% 25 nM CA200645 binding” value read?
**A.** The value was 82.8 ± 23.0%.

**Q.** Which “% 25 nM CA200645 binding” value does the source give for `O=C(O)/C=C\C(=O)O.O=C1/C(=C/c2ccccc2)C[C@@]2(O)[C@H]3Cc4ccc(O)c5c4[C@@]2(CCN3CC2CC2)[C@H]1O5` [BNTX maleate salt hydrate] here?
**A.** The value was 109.9 ± 5.7%.

**Q.** For `C[C@H](Cc1ccc(OCC(=O)[O-])cc1)NC[C@H](O)c1cccc(Cl)c1.[Na+]` [BRL 37344 sodium], which “% 25 nM CA200645 binding” value is on record?
**A.** The value was 98.2 ± 9.4%.

**Q.** How did the “% 25 nM CA200645 binding” value turn out when `Cc1ccc([N+](=O)[O-])cc1S(=O)(=O)N(C)C` [BRL 50481] was run?
**A.** Its value is 82.8 ± 17.4%.

**Q.** For `Cl.O=C(Cc1ccc(Cl)c(Cl)c1)N1CCCCC1CN1CCCC1` (stereo not drawn) [BRL 52537 hydrochloride], which “% 25 nM CA200645 binding” value is on record?
**A.** Its value is 112.4 ± 4.2%.

**Q.** How did the “% 25 nM CA200645 binding” value turn out when `CN1CCC(c2c[nH]c3ccc(O)cc23)CC1.O=C(O)/C=C\C(=O)O` [BRL 54443 maleate] was run?
**A.** Its value is 102.8 ± 6.2%.

**Q.** How did the “% 25 nM CA200645 binding” value turn out when `Cl.c1ccc2sc(C3(N4CCCCC4)CCCCC3)cc2c1` [BTCP hydrochloride] was run?
**A.** The value was 94.3 ± 14.0%.

**Q.** `N#Cc1cc([N+](=O)[O-])c2sc(C(N)=O)[n+]([O-])c2c1` [BTO-1] was tested. Which “% 25 nM CA200645 binding” value did it give?
**A.** Its value is 99.9 ± 23.7%.

**Q.** `Cl.c1ccc2nc(C3=NCCN3)ccc2c1` [BU224 hydrochloride] was tested. Which “% 25 nM CA200645 binding” value did it give?
**A.** Its value is 100.8 ± 7.2%.

**Q.** `C=CC[N+](C)(C)c1ccc(CCC(=O)CCc2ccc([N+](C)(C)CC=C)cc2)cc1.[Br-].[Br-]` [BW 284c51] was tested. Which “% 25 nM CA200645 binding” value did it give?
**A.** Its value is 100.9 ± 3.8%.

**Q.** `CC(N)Cc1c[nH]c2ccc(OCc3cccs3)cc12` (stereo not drawn) [BW 723C86] was tested. Which “% 25 nM CA200645 binding” value did it give?
**A.** The value was 102.2 ± 11.4%.

**Q.** `CC(/C=C/c1cccc(Oc2ccc(F)cc2)c1)N(O)C(N)=O` (stereo not drawn) [BWB70C] was tested. Which “% 25 nM CA200645 binding” value did it give?
**A.** The value was 92.4 ± 13.0%.

**Q.** `Cc1ccc(S(=O)(=O)/C=C/C#N)cc1` [Bay 11-7082] was tested. Which “% 25 nM CA200645 binding” value did it give?
**A.** The value was 104.6 ± 21.3%.

**Q.** Which “% 25 nM CA200645 binding” value does the source give for `CC(C)(C)c1ccc(S(=O)(=O)/C=C/C#N)cc1` [Bay 11-7085] here?
**A.** The value was 95.2 ± 7.7%.

**Q.** With `C[C@H]1C[C@H]2[C@@H]3CCC4=CC(=O)C=C[C@]4(C)[C@@]3(Cl)[C@@H](O)C[C@]2(C)[C@@]1(O)C(=O)CO` [Beclomethasone] as the compound, how does the “% 25 nM CA200645 binding” value read?
**A.** The value was 93.7 ± 1.6%.

**Q.** How did the “% 25 nM CA200645 binding” value turn out when `c1ccc2cc(-c3ncc[nH]3)ccc2c1` [Benazoline oxalate] was run?
**A.** The value was 98.8 ± 14.3%.

**Q.** Which “% 25 nM CA200645 binding” value does the source give for `Cl.Cn1c(CCCC(=O)O)nc2cc(N(CCCl)CCCl)ccc21` [Bendamustine hydrochloride] here?
**A.** Its value is 97.6 ± 4.1%.

**Q.** How did the “% 25 nM CA200645 binding” value turn out when `COc1cccc(OC)c1OCCNCC1CSc2ccccc2O1` (stereo not drawn) [Benoxathian hydrochloride] was run?
**A.** The value was 95.8 ± 4.4%.

**Q.** How did the “% 25 nM CA200645 binding” value turn out when `NC(CO)C(=O)NNCc1ccc(O)c(O)c1O` (stereo not drawn) [Benserazide hydrochloride] was run?
**A.** The value was 98.9 ± 5.3%.

**Q.** Which “% 25 nM CA200645 binding” value does the source give for `NC(=O)c1ccccc1` [Benzamide] here?
**A.** The value was 99.1 ± 4.7%.

**Q.** How did the “% 25 nM CA200645 binding” value turn out when `N=C(N)c1ccccc1` [Benzamidine hydrochloride] was run?
**A.** The value was 90.8 ± 8.3%.

**Q.** Which “% 25 nM CA200645 binding” value does the source give for `NC(=NCc1ccccc1)NC(=O)c1nc(Cl)c(N)nc1N` [Benzamil hydrochloride] here?
**A.** Its value is 95.3 ± 5.6%.

**Q.** Which “% 25 nM CA200645 binding” value does the source give for `CN1[C@@H]2CC[C@H]1C[C@@H](OC(c1ccccc1)c1ccccc1)C2` [Benztropine mesylate] here?
**A.** Its value is 96.0 ± 5.8%.

**Q.** `CC(C)COCC(CN(Cc1ccccc1)c1ccccc1)N1CCCC1` (stereo not drawn) [Bepridil hydrochloride] was tested. Which “% 25 nM CA200645 binding” value did it give?
**A.** Its value is 101.8 ± 6.3%.

**Q.** Which “% 25 nM CA200645 binding” value does the source give for `C[N+](C)(C)CC=O` [Betaine aldehyde chloride] here?
**A.** Its value is 95.0 ± 5.8%.

**Q.** How did the “% 25 nM CA200645 binding” value turn out when `C[N+](C)(C)CC(=O)O` [Betaine hydrochloride] was run?
**A.** The value was 78.7 ± 15.6%.

**Q.** With `C[C@H]1C[C@H]2[C@@H]3CCC4=CC(=O)C=C[C@]4(C)[C@@]3(F)[C@@H](O)C[C@]2(C)[C@@]1(O)C(=O)CO` [Betamethasone] as the compound, how does the “% 25 nM CA200645 binding” value read?
**A.** Its value is 77.0 ± 7.6%.

**Q.** Which “% 25 nM CA200645 binding” value does the source give for `CC(C)NCC(O)COc1ccc(CCOCC2CC2)cc1` (stereo not drawn) [Betaxolol hydrochloride] here?
**A.** The value was 98.4 ± 4.9%.

**Q.** How did the “% 25 nM CA200645 binding” value turn out when `CC(C)(Oc1ccc(CCNC(=O)c2ccc(Cl)cc2)cc1)C(=O)O` [Bezafibrate] was run?
**A.** The value was 93.0 ± 7.9%.

**Q.** Which “% 25 nM CA200645 binding” value does the source give for `CC(O)(CS(=O)(=O)c1ccc(F)cc1)C(=O)Nc1ccc(C#N)c(C(F)(F)F)c1` (stereo not drawn) [Bicalutamide (CDX)] here?
**A.** The value was 96.9 ± 5.3%.

**Q.** `OC(CCN1CCCCC1)(c1ccccc1)C1CC2C=CC1C2` (stereo not drawn) [Biperiden hydrochloride] was tested. Which “% 25 nM CA200645 binding” value did it give?
**A.** Its value is 86.9 ± 6.4%.

Same assay, conditions: % of control wells (1% DMSO and 25 nM CA200645); compounds at 10 µM; whole live cells expressing the A3AR; mean ± SD, three experiments in duplicate

**Q.** Which “% 25 nM CA200645 binding” value does the source give for `CO[C@H]1O[C@@H]2O[C@@]3(C)CC[C@H]4[C@H](C)CC[C@@H]([C@H]1C)[C@@]24OO3` [Artemether] here?
**A.** The value was 99.4 ± 9.9%.

Same assay, conditions: compounds tested at 10 µM; % of control wells (1% DMSO and 25 nM CA200645); whole live cells expressing the A3AR; mean ± SD, three experiments in duplicate

**Q.** `NC(N)=NCCCCN=C(N)N` [Arcaine sulfate] was tested. Which “% 25 nM CA200645 binding” value did it give?
**A.** Its value is 96.1 ± 6.4%.

**Q.** With `C[N+]1(C)[C@@H]2CC[C@H]1C[C@@H](OC(=O)C(CO)c1ccccc1)C2` (stereo partly drawn) [Atropine methyl bromide] as the compound, how does the “% 25 nM CA200645 binding” value read?
**A.** The value was 102.2 ± 7.3%.

**Q.** `C[N+]1(C)[C@@H]2CC[C@H]1C[C@@H](OC(=O)C(CO)c1ccccc1)C2` (stereo partly drawn) [Atropine methyl nitrate] was tested. Which “% 25 nM CA200645 binding” value did it give?
**A.** The value was 90.8 ± 8.8%.
